# Key:
# ATP6V1B2 = ATP6V1B2 (Mus musculus, UniProt P62814); assay: Co-immunoprecipitation in HEK 293 cells transfected with murine Atp6V1b2 expression plasmid with myc tag; format: binding; design: expressed in transfected cells; host or cells: HEK 293; details: HEK 293 cell lysate, biotin antibody, immunoblotting
# Method: (6) A murine Atp6V1b2 expression plasmid with a myc tag at the 3′ end was constructed; the plasmid was transfected in HEK 293 cells; the cells were collected after 2 days; and cell protein was extracted. The biotin antibody and protein G agarose beads were added into a cell lysis solution for co-immunoprecipitation^[1], and the protein was eluted by the protein loading buffer solution.
# (7) SDS-PAGE protein electrophoresis gel was prepared, the concentration of lower-layer separation gel was 10%, and the concentration of upper-layer concentrated gel was 4%; the sample was added into a loading hole; and the protein was detected by an immunoblotting method, with the result shown in FIG. 6b.
# [1] = system: APP/PS1 transgenic AD mice; assay: Morris water maze test in APP/PS1 transgenic AD mice; format: in vivo, mouse; details: continuously for 1 week, mice of 10 months old
# Method: Morris water maze referred to the test solutions recorded in Qing-Feng Wu et al., Fibroblast growth factor 13 is a microtubule-stabilizing protein modulating neuronal polarization and migration. Cell. 149, 1549-1564 (2012). The test was carried out in a circular pool filled with water (120 cm in diameter, 30 cm in depth, titanium dioxide was added to make opaque, kept temperature at 21±1° C.) in a room with a fixed environment. The test was divided into an adaptation period (1 day), a training period (5-6 days) and a testing period (1 day). Adaptation period: the platform was placed 0.5 cm above the water surface, and the mice were guided to the platform. Training day: the platform was placed 0.5 cm underwater, and the mice were trained to find the platform. […] Training were performed 4 times a day, 4 times a day (between 8:00 a.m. to 4:00 p.m.), the mice were dropped from different water points each time, each training was performed at interval of at least 30 min, a total of 6 days, and the order of water points was different every day. Test Day: test was performed 24 h after the end of the training day. […] The footage was analyzed with Etho Vision XT 14 software, recording parameters including the escape latency of entering the target quadrant, the number of platform crossings, and the dwell time in the target quadrant. […]
# [2] = system: APP/PS1 transgenic AD mice; assay: New object recognition test in APP/PS1 transgenic AD mice; format: in vivo, mouse; details: continuously for 1 week, mice of 10 months old
# Method: A new object recognition test was carried out by an open field box (40×40×35 cm, made of blue opaque plastic) with reference to a behavior test scheme recorded by Leger, M., et al. Object recognition test in mice. Nat Protoc. 8, 2531-2537 (2013). On the first day, mice were put into the open field box to adapt for 10 min. On the second day, each mouse was lightly put in the center of the box, two similar objects (a battery I) were put in the central area and freely explore for 10 min, and then the mice were sent back to feeding cages. After 3 h, the mice were put back to the box again (one battery was replaced with a doll toy which was 10 cm high) for 10 min to carry out a memory retention test. A video was analyzed by Etho Vision XT 14 software, and the time for exploring new/old objects by the mice was recorded. The discrimination index was computed as (Tnovel−Tfamliar)/(Tnovel+Tfamiliar).
# APP/PS1 transgenic mice of 10 months old (purchased from MODEL ORGANISMS) were selected, and equally divided into three groups; the mice were administrated with a PBS buffer solution (group 2), […]
# [3] = target: T1, murine ATP6V1B2 1-286aa truncated sequence (Mus musculus, UniProt P62814); assay: Co-immunoprecipitation of EGFP-tagged QD202 with Myc-tagged ATP6V1B2 1-286aa truncated sequence in 293 cells; format: binding; details: Myc antibody, immunoblotting
# T1 construct: expressed in transfected cells; host or cells: 293 cells
# T1 sequence (P62814 1-286): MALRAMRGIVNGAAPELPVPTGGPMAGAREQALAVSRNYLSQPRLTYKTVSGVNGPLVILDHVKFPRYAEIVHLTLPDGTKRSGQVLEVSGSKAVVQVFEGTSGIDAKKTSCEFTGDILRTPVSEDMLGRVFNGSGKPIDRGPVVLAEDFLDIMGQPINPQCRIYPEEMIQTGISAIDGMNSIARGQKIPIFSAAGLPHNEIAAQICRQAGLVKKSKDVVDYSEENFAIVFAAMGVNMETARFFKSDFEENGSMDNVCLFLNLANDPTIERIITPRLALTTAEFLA
# Source text: Expression plasmids including murine ATP6V1B2 full-length sequence, 1-286aa truncated sequence or 1-172aa truncated sequence with a Myc tag are respectively constructed; the amino acid sequence of the murine ATP6V1B2 full-length sequence was as set forth in SEQ ID NO. 8, the amino acid sequence of the murine ATP6V1B21-286aa was as set forth in SEQ ID NO. 10; the amino acid sequence of the murine ATP6V1B21-172aa as set forth in as SEQ ID NO. 11; and these plasmids were respectively called as an ATP6V1B2 full-length expression plasmid, an ATP6V1B21-286aa expression plasmid and an ATP6V1B21-172aa expression plasmid. Meanwhile, a QD202 expression plasmid with an EGFP tag was constructed. […]
# Then a Protein G agarose bead was added to be bound to the Myc antibody, so as to precipitate the ATP6V1B2 full-length protein, the 1-286aa truncated sequence or the 1-172aa truncated sequence, and proteins which were bound to one another, and finally the proteins subjected to co-immunoprecipitation was detected by virtue of an immunoblotting method.
# Sequence of ATP6V1B2 (P62814 whole entry): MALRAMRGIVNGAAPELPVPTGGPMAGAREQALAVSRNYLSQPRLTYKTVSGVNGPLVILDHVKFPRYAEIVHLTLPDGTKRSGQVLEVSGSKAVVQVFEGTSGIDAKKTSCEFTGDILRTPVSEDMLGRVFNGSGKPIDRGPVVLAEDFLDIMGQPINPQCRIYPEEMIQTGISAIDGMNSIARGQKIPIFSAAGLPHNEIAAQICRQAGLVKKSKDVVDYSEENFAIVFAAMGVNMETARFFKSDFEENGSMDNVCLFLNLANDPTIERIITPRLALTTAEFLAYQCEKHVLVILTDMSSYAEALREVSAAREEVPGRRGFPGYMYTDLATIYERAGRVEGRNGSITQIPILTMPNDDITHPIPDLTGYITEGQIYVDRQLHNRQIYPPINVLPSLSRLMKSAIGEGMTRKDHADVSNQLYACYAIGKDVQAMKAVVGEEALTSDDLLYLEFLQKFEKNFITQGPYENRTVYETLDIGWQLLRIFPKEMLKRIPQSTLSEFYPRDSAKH
substance,measurement,setting,value
QD202: polypeptide synthesized according to the amino acid sequence as set forth in SEQ ID NO. 1 (YGRKKRRQRRRSPVDVVCS; QD202),binding to ATP6V1B2 protein by co-immunoprecipitation,ATP6V1B2,specific binding between the QD202 and the ATP6V1B2 protein can be found
same,learning and cognitive functions in water maze behavior,"[1]; intragastric, 6.25 mg/kg",obvious improvement of learning and cognitive functions
same,learning and cognitive functions in water maze behavior,"[1]; intravenous, 1.25 mg/kg",obvious improvement on learning and cognitive functions
same,learning and cognitive functions in new object recognition,"[2]; intragastric, 6.25 mg/kg",obvious improvement of learning and cognitive functions
same,learning and cognitive functions in new object recognition,"[2]; intravenous, 1.25 mg/kg",obvious improvement on learning and cognitive functions
same,binding to ATP6V1B2 1-286aa truncated sequence by co-immunoprecipitation,[3],only the full-length ATP6V1B2 protein can be combined

# Reference: US20240343762A1, “USE OF PROTON PUMP MODULATOR IN PREPARING REAGENT” (SHANGHAI QUIETD BIOTECHNOLOGY CO. LTD., priority 2021, published 2024)
